Consider 32 compounds from US10130642B2, “Neprilysin inhibitors” (THERAVANCE BIOPHARMA R&D IP, LLC, priority 2011, dated 2018).

As a reminder, the Ki is the dissociation constant of the complex between target and ligand, obtained from inhibition or displacement. Read a low Ki as a stronger hold on the target. The pKi is the negative decadic logarithm of the Ki, by convention in mol/L.

Bounds are passed on as bounds.

Chain of human NEP (P08473 52-750): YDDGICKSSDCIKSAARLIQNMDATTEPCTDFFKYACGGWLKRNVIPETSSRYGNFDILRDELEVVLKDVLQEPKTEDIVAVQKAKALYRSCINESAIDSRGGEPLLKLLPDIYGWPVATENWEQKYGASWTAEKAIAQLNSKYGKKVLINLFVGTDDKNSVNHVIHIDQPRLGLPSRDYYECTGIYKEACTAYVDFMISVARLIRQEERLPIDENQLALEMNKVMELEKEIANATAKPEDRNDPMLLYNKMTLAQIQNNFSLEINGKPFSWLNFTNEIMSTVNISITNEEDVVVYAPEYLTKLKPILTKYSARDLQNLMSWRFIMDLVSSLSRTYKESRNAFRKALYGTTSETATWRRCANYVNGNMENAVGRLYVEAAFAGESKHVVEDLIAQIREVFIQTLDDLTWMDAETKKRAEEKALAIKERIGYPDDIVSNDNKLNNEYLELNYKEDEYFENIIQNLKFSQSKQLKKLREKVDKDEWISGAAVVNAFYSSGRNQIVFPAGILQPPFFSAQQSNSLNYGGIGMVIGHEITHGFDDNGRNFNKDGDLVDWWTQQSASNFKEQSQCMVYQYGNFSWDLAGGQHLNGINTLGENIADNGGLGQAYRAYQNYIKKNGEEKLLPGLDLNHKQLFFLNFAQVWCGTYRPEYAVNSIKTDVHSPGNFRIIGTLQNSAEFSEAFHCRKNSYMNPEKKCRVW

One test concerns the target human NEP (Homo sapiens (Human), UniProt P08473). Briefly: In vitro enzyme inhibition assay, inhibitor potencies at human NEP.
Settings: not given
With `O=C(N[C@H](Cc1ccc(-c2ccccc2)cc1)C[C@@H](CO)C(=O)O)c1nc(Cl)n[nH]1` [Example 2A, (2S,4S)-5-Biphenyl-4-yl-4-[(5-chloro-2H-[1,2,4]-triazole-3-carbonyl)-amino]-2-hydroxymethyl-pentanoic acid], the inhibition constant Ki was 1.26 to 10 nM. As for `O=C(N[C@H](Cc1ccc(-c2ccccc2)cc1)C[C@H](CO)C(=O)O)c1cnn[nH]1` [Example 4-1, (2R,4S)-5-Biphenyl-4-yl-2-hydroxymethyl-4-[(3H-[1,2,3]triazole-4-carbonyl)-amino]-pentanoic acid], the inhibition constant (Ki) fell in the range of 1.26 to 10 nM. `O=C(N[C@H](Cc1ccc(-c2ccccc2F)cc1)C[C@@H](CO)C(=O)O)c1cnn[nH]1` [Example 4-2, (2S,4S)-5-(2′-Fluorobiphenyl-4-yl)-2-hydroxymethyl-4-[(3H-[1,2,3]triazole-4-carbonyl)-amino]-pentanoic acid] registered a Ki not above 1 nM.

In turn, `O=C(N[C@H](Cc1ccc(-c2cccc(F)c2)cc1)C[C@@H](CO)C(=O)O)c1cnn[nH]1` [Example 4-3, (2S,4S)-5-(3′-Fluorobiphenyl-4-yl)-2-hydroxymethyl-4-[(3H-[1,2,3]triazole-4-carbonyl)-amino]-pentanoic acid] had an inhibition constant (Ki) not above 1 nM.

The compound `O=C(N[C@H](Cc1ccc(-c2ccccc2)cc1)C[C@@H](CO)C(=O)O)c1cn(O)nn1` [Example 4-7, (2S,4S)-5-Biphenyl-4-yl-2-hydroxymethyl-4-[(1-hydroxy-1H-[1,2,3]triazole-4-carbonyl)-amino]-pentanoic acid] displayed a Ki not above 1 nM. The compound `O=C(N[C@H](Cc1ccc(-c2ccccc2F)cc1)C[C@@H](CO)C(=O)O)c1cn(O)nn1` [Example 4-8, (2S,4S)-5-(2′-Fluorobiphenyl-4-yl)-2-hydroxymethyl-4-[(1-hydroxy-1H-[1,2,3]triazole-4-carbonyl)-amino]-pentanoic acid] registered a Ki not above 1 nM.

The compound `O=C(N[C@H](Cc1ccc(-c2cccc(Cl)c2)cc1)C[C@@H](CO)C(=O)O)c1c[nH]nn1` [Example 4-9, (2S,4S)-5-(3′-Chloro-biphenyl-4-yl)-2-hydroxymethyl-4-[(1H-[1,2,3]triazole-4-carbonyl)-amino]-pentanoic acid] displayed an inhibition constant Ki not above 1 nM.

In turn, `O=C(N[C@H](Cc1ccc(-c2cccc(Cl)c2)cc1)C[C@@H](CO)C(=O)O)c1cn(O)nn1` [Example 4-10, (2S,4S)-5-(3′-Chloro-biphenyl-4-yl)-2-hydroxymethyl-4-[(1-hydroxy-1H-[1,2,3]triazole-4-carbonyl)-amino]-pentanoic acid] yielded a Ki not above 1 nM. The same measure, in the same setting: the figure for `Cc1n[nH]c(C(=O)N[C@H](Cc2ccc(-c3ccccc3)cc2)C[C@@H](CO)C(=O)O)n1` [Example 4-13, (2S,4S)-5-Biphenyl-4-yl-2-hydroxymethyl-4-[(5-methyl-2H-[1,2,4]triazole-3-carbonyl)-amino]-pentanoic acid] is 12.6 to 100 nM. The compound `O=C(N[C@H](Cc1ccc(-c2ccccc2)cc1)C[C@@H](CO)C(=O)O)c1nc(O)n[nH]1` [Example 4-14, (2S,4S)-5-Biphenyl-4-yl-2-hydroxymethyl-4-[(5-hydroxy-2H-[1,2,4]triazole-3-carbonyl)-amino]-pentanoic acid] yielded a Ki not above 1 nM. As for `O=C(N[C@H](Cc1ccc(-c2ccccc2F)cc1)C[C@@H](CO)C(=O)O)c1nc(Cl)n[nH]1` [Example 4-16, (2S,4S)-4-[(5-Chloro-2H-[1,2,4]triazole-3-carbonyl)-amino]-5-(2′-fluorobiphenyl-4-yl)-2-hydroxymethyl-pentanoic acid], the inhibitory constant (Ki) was not above 1 nM.

Compound `O=C(N[C@H](Cc1ccc(-c2ccccc2)cc1)C[C@@H](CO)C(=O)O)c1cc(O)n[nH]1` [Example 4-17, (2S,4S)-5-Biphenyl-4-yl-2-hydroxymethyl-4-[(5-hydroxy-2H-pyrazole-3-carbonyl)-amino]-pentanoic acid] registered a Ki not above 1 nM. Same read-out and setting: under `O=C(O)c1cc(C(=O)N[C@H](Cc2ccc(-c3ccccc3)cc2)C[C@@H](CO)C(=O)O)[nH]n1` [Example 4-18, 5-((1S,3S)-1-Biphenyl-4-ylmethyl-3-carboxy-4-hydroxy-butylcarbamoyl)-1H-pyrazole-3-carboxylic acid] stands not above 1 nM; under `CN(C)C(=O)c1cc(C(=O)N[C@H](Cc2ccc(-c3ccccc3)cc2)C[C@H](CO)C(=O)O)[nH]n1` [Example 4-20, (2R,4S)-5-Biphenyl-4-yl-4-[(5-dimethylcarbamoyl-2H-pyrazole-3-carbonyl)-amino]-2-hydroxymethyl-pentanoic acid], 12.6 to 100 nM.

The compound `CN(C)C(=O)c1cc(C(=O)N[C@H](Cc2ccc(-c3ccccc3)cc2)C[C@@H](CO)C(=O)O)[nH]n1` [Example 4-21, (2S,4S)-5-Biphenyl-4-yl-4-[(5-dimethylcarbamoyl-2H-pyrazole-3-carbonyl)-amino]-2-hydroxymethyl-pentanoic acid] returned an inhibition constant Ki of 1.26 to 10 nM. On to `O=C(N[C@H](Cc1ccc(-c2ccccc2)cc1)C[C@@H](CO)C(=O)O)c1cc(C(=O)N2CCC2)n[nH]1` [Example 4-24, (2S,4S)-4-{[5-(Azetidine-1-carbonyl)-2H-pyrazole-3-carbonyl]-amino}-5-biphenyl-4-yl-2-hydroxymethyl-pentanoic acid], for which the inhibition constant (Ki) is not above 1 nM. Compound `O=C(N[C@H](Cc1ccc(-c2ccccc2)cc1)C[C@@H](CO)C(=O)O)c1cc(C(=O)N2CCCC2)n[nH]1` [Example 4-25, (2S,4S)-5-Biphenyl-4-yl-2-hydroxymethyl-4-{[5-(pyrrolidine-1-carbonyl)-2H-pyrazole-3-carbonyl]-amino}-pentanoic acid] gave a Ki not above 1 nM. In turn, `O=C(N[C@H](Cc1ccc(-c2ccccc2)cc1)C[C@@H](CO)C(=O)O)c1cc(-c2ccccc2Cl)n[nH]1` [Example 4-27, (2S,4S)-5-Biphenyl-4-yl-4-{[5-(2-chloro-phenyl)-2H-pyrazole-3-carbonyl]-amino}-2-hydroxymethyl-pentanoic acid] gave a Ki not above 1 nM.

Turning to `CCCCc1cc(C(=O)N[C@H](Cc2ccc(-c3ccccc3)cc2)C[C@@H](CO)C(=O)O)[nH]n1` [Example 4-28, (2S,4S)-5-Biphenyl-4-yl-4-[(5-butyl-2H-pyrazole-3-carbonyl)-amino]-2-hydroxymethyl-pentanoic acid], the inhibition constant (Ki) was not above 1 nM. On to `O=C(N[C@H](Cc1ccc(-c2cccc(F)c2)cc1)C[C@@H](CO)C(=O)O)c1cc(-c2ccccc2Cl)n[nH]1` [Example 4-29, (2S,4S)-4-{[5-(2-Chlorophenyl)-2H-pyrazole-3-carbonyl]-amino}-5-(3′-fluorobiphenyl-4-yl)-2-hydroxymethyl-pentanoic acid], for which the Ki was not above 1 nM.

In turn, `O=C(N[C@H](Cc1ccc(-c2cccc(F)c2)cc1)C[C@@H](CO)C(=O)O)c1cc(-c2ccccn2)n[nH]1` [Example 4-30, (2S,4S)-5-(3′-Fluorobiphenyl-4-yl)-2-hydroxymethyl-4-[(5-pyridin-2-yl-2H-pyrazole-3-carbonyl)-amino]-pentanoic acid] gave an inhibitory constant (Ki) not above 1 nM. In turn, `O=C(N[C@H](Cc1ccc(-c2ccccc2)cc1)C[C@@H](CO)C(=O)O)c1c[nH]c(O)n1` [Example 4-31, (2S,4S)-5-Biphenyl-4-yl-4-[(2-hydroxy-1H-imidazole-4-carbonyl)-amino]-2-hydroxymethyl-pentanoic acid] displayed a Ki of 12.6 to 100 nM. The same measure, in the same setting: the figure for `O=C(NC(Cc1ccc(-c2ccccc2)cc1)C[C@@H](CO)C(=O)O)c1cc(F)c2nn[nH]c2c1` (stereo partly drawn) [Example 4-33, (S)-5-Biphenyl-4-yl-4-[(7-fluoro-3H-benzotriazole-5-carbonyl)-amino]-2-hydroxymethyl-pentanoic acid] is not above 1 nM; for `O=C(N[C@H](Cc1ccc(-c2cccc(Cl)c2)cc1)C[C@@H](CO)C(=O)O)c1ccc2nnn(O)c2c1` [Example 4-34, (2S,4S)-5-(3′-Chloro-biphenyl-4-yl)-4-[(3-hydroxy-3H-benzotriazole-5-carbonyl)-amino]-2-hydroxymethyl-pentanoic acid] it is not above 1 nM.

Turning to `O=C(NC(Cc1ccc(-c2ccccc2)cc1)C[C@H](CO)C(=O)O)c1cc(Cl)c2nc[nH]c2c1` (stereo partly drawn) [Example 4-36, (R)-5-Biphenyl-4-yl-4-[(7-chloro-3H-benzoimidazole-5-carbonyl)-amino]-2-hydroxymethyl-pentanoic acid], the inhibition constant (Ki) lay in the range of 1.26 to 10 nM. `Cc1nc2c(Cl)cc(C(=O)NC(Cc3ccc(-c4ccccc4)cc3)C[C@H](CO)C(=O)O)cc2[nH]1` (stereo partly drawn) [Example 4-38, (R)-5-Biphenyl-4-yl-4-[(7-chloro-2-methyl-3H-benzoimidazole-5-carbonyl)-amino]-2-hydroxymethyl-pentanoic acid] returned an inhibition constant Ki of 12.6 to 100 nM. Compound `O=C(NC(Cc1ccc(-c2ccccc2)cc1)C[C@@H](CO)C(=O)O)c1cnc2nn[nH]c2c1` (stereo partly drawn) [Example 4-43, (S)-5-Biphenyl-4-yl-2-hydroxymethyl-4-[(1H-[1,2,3]triazolo[4,5-b]pyridine-6-carbonyl)-amino]-pentanoic acid] gave a Ki of 1.26 to 10 nM.

In turn, `O=C(N[C@H](Cc1ccc(-c2ccccc2)cc1)C[C@@H](CO)C(=O)O)c1cc(O)no1` [Example 4-45, (2S,4S)-5-Biphenyl-4-yl-4-[(3-hydroxy-isoxazole-5-carbonyl)-amino]-2-hydroxymethyl-pentanoic acid] displayed a Ki not above 1 nM. Regarding `O=C(N[C@H](Cc1ccc(-c2ccccc2)cc1)C[C@@H](CO)C(=O)O)c1cnc(O)nc1` [Example 4-47, (2S,4S)-5-Biphenyl-4-yl-2-hydroxymethyl-4-[(2-hydroxy-pyrimidine-5-carbonyl)-amino]-pentanoic acid], the Ki is not above 1 nM.

Still in this test, the particulars now being: pKi values at human NEP; recombinant human NEP, fluorogenic peptide substrate, 37° C.
As to `O=C(N[C@H](Cc1ccc(-c2ccccc2)cc1)C[C@@H](CO)C(=O)O)c1cnn[nH]1` [Example 1B, (2S,4S)-5-Biphenyl-4-yl-2-hydroxymethyl-4-[(3H-[1,2,3]triazole-4-carbonyl)-amino]-pentanoic acid], the pKi is on record as not below 9.0. The same measure, in the same setting: the figure for `O=C(N[C@H](Cc1ccc(-c2cccc(F)c2)cc1)C[C@@H](CO)C(=O)O)c1nc(Cl)n[nH]1` [Example 3B, (2S,4S)-4-[(5-Chloro-2H-[1,2,4]triazole-3-carbonyl)amino]-5-(3′-fluorobiphenyl-4-yl)-2-hydroxymethyl-pentanoic acid] is not below 9.0; for `COCCN(C)C(=O)c1cc(C(=O)N[C@H](Cc2ccc(-c3ccccc3)cc2)C[C@@H](CO)C(=O)O)[nH]n1` [Example 4-22] it is 8.0-8.9.
